Results: ChEMBL document CHEMBL1144059, “Interference of linoleic acid fraction in some receptor binding assays” (J Nat Prod, 1999)

Tests used:
Bos taurus [1] = organism: Bos taurus; assay: Displacement of [3H]nitrobenzylthiosine from nucleoside transport protein in calf lung membrane at 1 mM; assay type: cell membranes
Bos taurus [2] = organism: Bos taurus; assay: Displacement of [3H]nitrobenzylthiosine from nucleoside transport protein in calf lung membrane at 0.1 mM; assay type: cell membranes
Bos taurus [3] = organism: Bos taurus; assay: Displacement of [3H]nitrobenzylthiosine from nucleoside transport protein in calf lung membrane at 10 uM; assay type: cell membranes
[4] = molecular target: T1, Adenosine receptor A1 (Rattus norvegicus) (UniProt P25099); assay: Displacement of [3H]DPCPX from rat adenosine A1 receptor at 10 uM by liquid scintillation counting
T1 sequence (whole entry): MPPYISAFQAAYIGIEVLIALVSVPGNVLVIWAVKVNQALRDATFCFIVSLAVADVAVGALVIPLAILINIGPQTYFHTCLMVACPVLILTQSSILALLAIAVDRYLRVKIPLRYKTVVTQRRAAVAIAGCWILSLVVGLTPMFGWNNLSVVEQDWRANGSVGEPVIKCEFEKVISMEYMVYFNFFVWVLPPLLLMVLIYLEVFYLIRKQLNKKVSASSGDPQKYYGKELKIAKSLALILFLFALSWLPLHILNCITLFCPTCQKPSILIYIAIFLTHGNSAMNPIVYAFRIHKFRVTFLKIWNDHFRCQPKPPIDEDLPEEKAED

[5] = molecular target: T1, Adenosine receptor A1 (Rattus norvegicus); assay: Displacement of [3H]DPCPX from rat adenosine A1 receptor at 1 mM by liquid scintillation counting
Adenosine receptor A1 = molecular target: T2, Adenosine receptor A1 (Rattus norvegicus, UniProt P25099); assay: Displacement of [3H]DPCPX from rat adenosine A1 receptor by liquid scintillation counting
T2 sequence (P25099 whole entry): T1 sequence (whole entry)

Rattus norvegicus [6] = organism: Rattus norvegicus; assay: Displacement of [3H]naloxone from rat opioid receptor at 0.1 mM
[7] = molecular target: T1, Adenosine receptor A1 (Rattus norvegicus); assay: Displacement of [3H]DPCPX from rat adenosine A1 receptor at 0.1 mM by liquid scintillation counting
Rattus norvegicus [8] = organism: Rattus norvegicus; assay: Displacement of [3H]naloxone from rat opioid receptor at 10 uM
[9] = molecular target: T1, Adenosine receptor A1 (Rattus norvegicus); assay: Displacement of [3H]DPCPX from rat brain adenosine A1 receptor at 56 uM assessed per mg of protein by saturation analysis
Rattus norvegicus [10] = organism: Rattus norvegicus; assay: Displacement of [3H]naloxone from rat opioid receptor at 1 mM

Q: For `CCCCC/C=C\C/C=C\CCCCCCCC(=O)O` [LINOLEIC ACID], which Activity (Bos taurus [1]) is on record?
A: < 0%

Q: And the Activity (Bos taurus [2])?
A: 100%

Q: And the Activity (Bos taurus [3])?
A: 100%

Q: What about the Activity [4] of the same compound?
A: 85%

Q: And the Activity [5]?
A: 0%

Q: What about the IC50 (Adenosine receptor A1) of the same compound?
A: 65 µM

Q: And the Activity (Rattus norvegicus [6])?
A: 42%

Q: What about the Activity [7] of the same compound?
A: 3%

Q: What about the Activity (Rattus norvegicus [8]) of the same compound?
A: 100%

Q: What about the Activity [9] of the same compound?
A: 143 fmol

Q: What about the Activity (Rattus norvegicus [10]) of the same compound?
A: > 100%
